This assay has as its system C3H/He mice, Gardner lymphosarcoma 6C3HED ip, survival T/C. The assay is described as follows: NCI In Vivo Anticancer Drug Screen. Data for tumor model Lymphosarcoma Gardner 6C3HED (intraperitoneal) in C3H/He mice. Conditions: higher = longer survival. How it is done: The antitumor activity of compounds was measured in mice bearing transplantable tumors. Survival or tumor size were measured and the results are expressed as the measurement made in the treated group (T) divided by the measurement made in the vehicle treated control group (C). The tumor model used in this assay is Lymphosarcoma Gardner 6C3HED (intraperitoneal) in C3H/He mice

[1] abbreviates: endpoint: survival time, mean or median, dose: 16.0 mg/kg/injection, schedule: Q01DX010 (ip), vehicle: saline.
[2] abbreviates: endpoint: survival time, mean or median, dose: 32.0 mg/kg/injection, schedule: Q01DX010 (ip), vehicle: saline.
[3] abbreviates: endpoint: survival time, mean or median, dose: 3.13 mg/kg/injection, schedule: Q01DX010 (ip), vehicle: saline.
[4] abbreviates: endpoint: survival time, mean or median, dose: 6.25 mg/kg/injection, schedule: Q01DX010 (ip), vehicle: saline.
The mark [5] stands for this setting: endpoint: survival time, mean or median, dose: 12.5 mg/kg/injection, schedule: Q01DX010 (ip), vehicle: saline.
Where [6] appears, read: endpoint: survival time, mean or median, dose: 2.5 mg/kg/injection, schedule: Q01DX010 (ip), vehicle: saline.
Setting [7] is: endpoint: survival time, mean or median, dose: 5.0 mg/kg/injection, schedule: Q01DX010 (ip), vehicle: saline.
Where [8] appears, read: endpoint: survival time, mean or median, dose: 10.0 mg/kg/injection, schedule: Q01DX010 (ip), vehicle: saline.
[9] abbreviates: endpoint: survival time, mean or median, dose: 25.0 mg/kg/injection, schedule: Q01DX010 (ip), vehicle: saline.
Where [10] appears, read: endpoint: survival time, mean or median, dose: 20.0 mg/kg/injection, schedule: Q01DX010 (ip), vehicle: saline.
Where [11] appears, read: endpoint: survival time, mean or median, dose: 40.0 mg/kg/injection, schedule: Q01DX010 (ip), vehicle: saline.
[12] abbreviates: endpoint: survival time, mean or median, dose: 80.0 mg/kg/injection, schedule: Q01DX010 (ip), vehicle: saline.
The mark [13] stands for this setting: endpoint: survival time, mean or median, dose: 50.0 mg/kg/injection, schedule: Q01DX010 (ip), vehicle: saline.
[14] abbreviates: endpoint: survival time, mean or median, dose: 100.0 mg/kg/injection, schedule: Q01DX010 (ip), vehicle: saline.
Setting [15] is: endpoint: survival time, mean or median, dose: 200.0 mg/kg/injection, schedule: Q01DX010 (ip), vehicle: saline.
Setting [16] is: endpoint: survival time, mean or median, dose: 62.5 mg/kg/injection, schedule: Q01DX010 (ip), vehicle: saline.
[17] abbreviates: endpoint: survival time, mean or median, dose: 125.0 mg/kg/injection, schedule: Q01DX010 (ip), vehicle: saline.
[18] abbreviates: endpoint: survival time, mean or median, dose: 250.0 mg/kg/injection, schedule: Q01DX010 (ip), vehicle: saline.
[19] abbreviates: endpoint: survival time, mean or median, dose: 500.0 mg/kg/injection, schedule: Q01DX010 (ip), vehicle: saline.

Values joined by “and” are separate entries in the source; they are usually repeats but may differ in a detail not shown here. Identical values can stand only once. Toxic doses and inconclusive results are not listed.

With `O=C(Nc1ccc(C2=NCCN2)cc1)c1cccc(C(=O)Nc2ccc(C3=NCCN3)cc2)c1`, the T/C reads like this: (endpoint: survival time, mean or median, dose: 8.0 mg/kg/injection, schedule: Q01DX010 (ip), vehicle: saline) 95 % of control; under setting [1], 304 % of control; under setting [2], 304 % of control; (endpoint: survival time, mean or median, dose: 64.0 mg/kg/injection, schedule: Q01DX010 (ip), vehicle: saline) 304 % of control.

Consider `CS(=O)(=O)OCCCCOS(C)(=O)=O`, for which the T/C was 95 % of control (endpoint: survival time, mean or median, dose: 1.56 mg/kg/injection, schedule: Q01DX010 (ip), vehicle: saline); 90 % of control under setting [3]; 95 % of control under setting [4]; 104 % of control under setting [5].

Turning to `CC[n+]1c(-c2ccccc2)c2cc(N)ccc2c2ccc(N)cc21`, the T/C is 117 % of control (endpoint: survival time, mean or median, dose: 1.25 mg/kg/injection, schedule: Q01DX010 (ip), vehicle: saline); 121 % of control under setting [6]; 117 % of control under setting [7]; 121 % of control under setting [8].

On to `C[C@H]1C(=O)O[C@@H]2CCN3CC=C(COC(=O)[C@](C)(O)[C@@]1(C)O)[C@H]23`, for which the T/C by setting is: under setting [3], 100 % of control and 107 % of control; under setting [4], 93 % of control and 103 % of control; under setting [5], 100 % of control and 103 % of control; under setting [9], 111 % of control.

In the case of `O[C@H](CN1CC1)[C@@H](O)CN1CC1`, the T/C reads like this: (endpoint: survival time, mean or median, dose: 125.0 micrograms/kg/injection, schedule: Q01DX010 (ip), vehicle: saline) 103 % of control; (endpoint: survival time, mean or median, dose: 250.0 micrograms/kg/injection, schedule: Q01DX010 (ip), vehicle: saline) 114 % of control and 203 % of control; (endpoint: survival time, mean or median, dose: 500.0 micrograms/kg/injection, schedule: Q01DX010 (ip), vehicle: saline) 169 % of control.

Consider `CC[C@@H](c1ccc(O)cc1)[C@@H](CC)c1ccc(O)cc1`, for which the T/C runs as follows: (endpoint: survival time, mean or median, dose: 25.0 mg/kg/injection, schedule: Q01DX010 (sc), vehicle: water) 96 % of control; (endpoint: survival time, mean or median, dose: 50.0 mg/kg/injection, schedule: Q01DX010 (sc), vehicle: water) 93 % of control; (endpoint: survival time, mean or median, dose: 100.0 mg/kg/injection, schedule: Q01DX010 (sc), vehicle: water) 93 % of control.

On to `CCOC(=O)NP(=O)(N1CC1)N1CC1`, for which the T/C under setting [6] was 100 % of control and 107 % of control; the T/C under setting [7] was 107 % of control and 117 % of control; the T/C under setting [8] was 157 % of control; the T/C under setting [10] is 92 % of control and 103 % of control.

On to `Cn1c(N)nc2nc[nH]c2c1=S`, for which the T/C by setting is: under setting [8], 96 % of control and 103 % of control; under setting [10], 96 % of control and 107 % of control; under setting [11], 100 % of control and 107 % of control; under setting [12], 96 % of control.

Turning to `CC(C)CC(NC(=O)C(O)C(N)Cc1ccccc1)C(=O)O` (stereo not drawn), the T/C (endpoint: median survival time, dose: 2.5 mg/kg/injection, schedule: Q01DX005 (oral), vehicle: saline) was 94 % of control; the T/C (endpoint: median survival time, dose: 5.0 mg/kg/injection, schedule: Q01DX005 (oral), vehicle: saline) is 95 % of control; the T/C (endpoint: median survival time, dose: 10.0 mg/kg/injection, schedule: Q01DX005 (oral), vehicle: saline) was 95 % of control.

Regarding `NC(CC(=O)O)C(=O)O` (stereo not drawn), the T/C reads like this: (endpoint: median survival time, dose: 50.0 mg/kg/injection, schedule: Q01DX005 (ip), vehicle: water) 88 % of control; (endpoint: median survival time, dose: 100.0 mg/kg/injection, schedule: Q01DX005 (ip), vehicle: water) 92 % of control; (endpoint: median survival time, dose: 200.0 mg/kg/injection, schedule: Q01DX005 (ip), vehicle: water) 92 % of control.

As to `NC(=O)N(CCCl)N=O`, the T/C is 204 % of control (endpoint: survival time, mean or median, dose: 0.5 mg/kg/injection, schedule: Q01DX010 (ip), vehicle: saline); 228 % of control (endpoint: survival time, mean or median, dose: 1.0 mg/kg/injection, schedule: Q01DX010 (ip), vehicle: saline); 161 % of control (endpoint: survival time, mean or median, dose: 2.0 mg/kg/injection, schedule: Q01DX010 (ip), vehicle: saline); 100 % of control (endpoint: survival time, mean or median, dose: 4.0 mg/kg/injection, schedule: Q01DX010 (ip), vehicle: saline).

For the molecule `CN(C)/N=N/c1nc[nH]c1C(N)=O`, the T/C is 300 % of control under setting [9]; 300 % of control and 311 % of control under setting [13]; 266 % of control and 300 % of control under setting [14]; 118 % of control and 296 % of control under setting [15].

On to `CC1CCOS(=O)O1` (stereo not drawn), for which the T/C under setting [6] is 93 % of control; the T/C under setting [7] is 93 % of control; the T/C under setting [8] is 92 % of control and 103 % of control; the T/C under setting [10] is 89 % of control and 96 % of control.

As to `Nc1nc(=O)n(C2CC(O)C(CO)O2)cc1Br` (stereo not drawn), the T/C under setting [9] is 107 % of control; the T/C under setting [13] was 107 % of control; the T/C under setting [14] is 96 % of control and 107 % of control; the T/C under setting [15] was 100 % of control and 107 % of control.

With `Cc1cc2nc3c(=O)[nH]c(=O)nc-3n(CC(O)C(O)C(O)C(O)CO)c2cc1C` (stereo not drawn), the T/C runs as follows: under setting [5], 97 % of control; under setting [13], 100 % of control; under setting [14], 87 % of control and 100 % of control.

Take `OCCOCCN1CCN(CCCN2c3ccccc3Sc3ccc(C(F)(F)F)cc32)CC1`: the T/C under setting [7] was 90 % of control and the T/C under setting [10] is 90 % of control.

`CO[C@@H]1[C@@H](OC2OC(C)C(OC3CC(C)(O)C(OC(=O)CC(C)C)C(C)O3)C(N(C)C)C2O)[C@@H](CC=O)C[C@@H](C)C(=O)/C=C/C2O[C@H]2C[C@@H](C)OC(=O)C[C@H]1OC(C)=O` (stereo partly drawn): the T/C runs as follows: (endpoint: survival time, mean or median, dose: 18.8 mg/kg/injection, schedule: Q01DX010 (ip), vehicle: saline) 94 % of control; (endpoint: survival time, mean or median, dose: 37.5 mg/kg/injection, schedule: Q01DX010 (ip), vehicle: saline) 102 % of control.

For `CN(Cc1cnc2nc(N)nc(N)c2n1)c1c(Cl)cc(C(=O)NC(CCC(=O)O)C(=O)O)cc1Cl` (stereo not drawn), the T/C reads like this: under setting [8], 300 % of control; under setting [10], 300 % of control; under setting [11], 300 % of control; under setting [12], 300 % of control.

As to `Nc1ncccc1C(=O)O`, the T/C is 100 % of control under setting [16], 100 % of control under setting [17], 107 % of control under setting [18] and 96 % of control under setting [19].

On to `CN(C)c1ccc(/C=C/c2ccnc3ccccc23)cc1`, for which the T/C reads like this: under setting [1], 90 % of control; under setting [2], 93 % of control.

Regarding `OC(CBr)C(O)C(O)C(O)CBr` (stereo not drawn), the T/C reads like this: under setting [9], 88 % of control and 96 % of control; under setting [13], 88 % of control and 110 % of control; under setting [14], 100 % of control and 110 % of control; under setting [15], 88 % of control and 110 % of control.

Consider `c1ccc(CCSc2ncnc3nc[nH]c23)cc1`, for which the T/C under setting [16] was 96 % of control; the T/C under setting [17] is 96 % of control and 100 % of control; the T/C under setting [18] was 93 % of control and 96 % of control; the T/C under setting [19] was 93 % of control and 96 % of control.

Consider `Cc1n[nH]c(=O)[nH]c1=O`, for which the T/C by setting is: under setting [17], 106 % of control; under setting [18], 90 % of control; (endpoint: survival time, mean or median, dose: 1000.0 mg/kg/injection, schedule: Q01DX010 (ip), vehicle: saline) 90 % of control.

For the molecule `Nc1ncnc2c1ncn2C1OC(COC=O)C(O)C1O` (stereo not drawn), the T/C was 90 % of control (endpoint: median survival time, dose: 13.8 mg/kg/injection, schedule: Q01DX003 (ip), vehicle: saline); 104 % of control (endpoint: median survival time, dose: 13.8 mg/kg/injection, schedule: Q12HX006 (ip), vehicle: saline); 104 % of control (endpoint: median survival time, dose: 27.6 mg/kg/injection, schedule: Q01DX003 (ip), vehicle: saline); 104 % of control (endpoint: median survival time, dose: 27.6 mg/kg/injection, schedule: Q12HX006 (ip), vehicle: saline); 104 % of control (endpoint: median survival time, dose: 55.2 mg/kg/injection, schedule: Q01DX003 (ip), vehicle: saline); 120 % of control (endpoint: median survival time, dose: 55.2 mg/kg/injection, schedule: Q12HX006 (ip), vehicle: saline).

Consider `O=c1[nH]cc(F)c(=O)[nH]1`, for which the T/C is, setting by setting: (endpoint: median survival time, dose: 13.3 mg/kg/injection, schedule: Q01DX009 (ip), vehicle: saline) 222 % of control; (endpoint: median survival time, dose: 20.0 mg/kg/injection, schedule: Q01DX009 (ip), vehicle: saline) 222 % of control; (endpoint: median survival time, dose: 27.0 mg/kg/injection, schedule: Q01DX009 (ip), vehicle: saline) 203 % of control; under setting [7], 110 % of control; under setting [10], 283 % of control; under setting [11], 203 % of control.

As to `O=[n+]1c2c(n([O-])c3ccccc31)-c1cccc3cccc-2c13`, under setting [3], the T/C was 86 % of control.

Values taken from PubChem BioAssay AID230 (DTP/NCI, 2004).
